Key:
HeLa cells [1] = experiment: Uptake of endocytic markers after inhibitor treatment; assay type: cell-based, human
HeLa cells [2] = experiment: Actin filament visualization with rhodamine-phalloidin in fixed cells; assay type: cell-based, human; conditions: 2 μM for 30 min at 37°C, rhodamine-phalloidin and DAPI
HeLa cells [3] = experiment: Cellular uptake by live cell confocal fluorescence microscopy; assay type: cell-based, human
cell membranes = conditions: studies in fixed cells; cited from earlier work

For `CCN(c1nc(N)c(C(=O)NC(=N)N)nc1Cl)C(C)C` [EIPA, 5-(N-ethyl-N-isopropyl)amiloride], the “Effect on uptake of 10K-Dex” value (HeLa cells [1]; 50 μM EIPA) was “significantly inhibited”, the “Effect on uptake of CTX-B” value (HeLa cells [1]; 50 μM EIPA) was “significantly inhibit” and the “Effect on uptake of EGF” value (HeLa cells [1]; 50 μM EIPA, data not shown) was “no or little effect”.
In the case of `C/C1=C/C(=O)O[C@@H]2C[C@@H](CC[C@H](C)/C=C\CC1)O[C@@](O)([C@@H]1CSC(=O)N1)C2` [Lat B, Latrunculin B], the “Effect on actin filament network” value (HeLa cells [2]) is reported as “total disruption of the actin filament network” and the “Effect on uptake of 10K-Dex” value (HeLa cells [1]; 2 μM Lat B, data not shown) is reported as “did not significantly inhibit”.
For “AF488-MCoTI-I: MCoTI-I site-specifically labeled with AlexaFluor488 through the ε-amino of residue Lys4 in loop 1 (SGSDGGVCPKILQRCRRDSDCPGACICRGNGYCG; not fully specified; AlexaFluor488 on Lys4; UniProt P82408 1-34, looked up)”, the “Surface binding at 4°C” value (HeLa cells [3]; 25 μM, 4°C, live HeLa cells) was “no significant surface binding”, the “Internalization at 4°C” value (HeLa cells [3]; 25 μM, 1 h incubation at 4°C, completely reversible on 1 h at 37°C) was “totally inhibited” and the “Internalization (intracellular distribution)” value (HeLa cells [3]; 25 μM, 1 h incubation at 37°C, serum-free DMEM, live HeLa cells, confocal fluorescence) was “clearly visible within perinuclear punctate spots inside the cells”. The “Inhibition of cellular uptake by EIPA” value (HeLa cells [3]; 50 μM EIPA for 30 min at 37°C before 25 μM cyclotide, 1 h uptake) was “≈ 80%”.
For kalata B1, the “Affinity for proteins or lipids in cell membranes” value (cell membranes) is listed as “shows membrane affinity”.

Source: article PMC3195939 (Journal of controlled release : official journal of the …, 2011)
